The source of these data is patent publication US20180055848A1 (Board of Supervisors of Louisiana State University and …, priority 2015, published 2018).

The test system of test [1] is lean adults and post-obese adults. The settings on record: 100 mg of caffeine, cited from earlier work.
In test [2] the test system is Male Sprague-Dawley rats fed a high fat diet. Put plainly: Example 5: weight gain, body composition and metabolic chamber in rats, 4 weeks. The class given is in vivo, rat. As to the method:
(§1) The Pennington Biomedical Research Center Animal Care and Use Committee approved the animal protocols. […] Male Sprague-Dawley rats (Harlan, Inc., Indianapolis, Ind., 8-9 weeks old) were fed a high fat diet (60% calories from fat, D12492, Research Diets, New Brunswick, N.J.) for 4 weeks. […] All treatments were administered by intraperitoneal injection twice a day. […] Body composition was measured by Nuclear Magnetic Resonance (Minispec LF90 NMR analyzer, Bruker Optics, Billerica, Mass.). Weight and food intake were recorded every 2 days. […] Total activity was measured with a Phenomaster system (TSE Systems, Chesterfield Mo.). Chambers had evenly spaced infrared beam grids along X, Y, and Z axes; the system sensed and quantified total beam breaks caused by movements of the animal.

For the next test, the system named is healthy adults. Put plainly: Metabolic rate in humans (indirect calorimetry, crossover study).
Test [3] concerns Differentiated human adipocytes. Put plainly: Lipolysis assay (glycerol release) in cultured adipocytes. In kind it is cell-based. To be noted: 3 hours. How it is done: Primary human adipose tissue was obtained from patients undergoing liposuction, paniculectomy, or bariatric surgery. Tissue was processed by […]) to isolate and cryopreserve pre-adipocytes. At the time of the assay, pre-adipocytes were differentiated into adipocytes. Differentiated human adipocytes adherent to the bottom of a 96-well plate were washed and treated with media containing one of ten treatments: […] After incubation, a 50 μL aliquot was removed and combined with 50 μL glycerol reagent, in a colorimetric assay based on the amount of glycerol released during incubation with test compounds. Absorbance was measured at 540 nm, and results were calibrated against a standard curve. Eight replicates were conducted for each treatment.

For a further test, the system named is adults. To be noted: after 6 months; cited from earlier work.
Test [4] deals with Male Sprague-Dawley rats fed a high fat diet. Nature of the test: Example 6: lean and fat mass in rats, 8 weeks. In kind it is in vivo, rat. To be noted: i.p. twice a day, albuterol 0.125 mg/kg, caffeine 3.12 mg/kg. How it is done:
as §1

Structures are written as SMILES. Read-outs that look alike come from different tables or passages of the source.

On to `Cn1c(=O)c2c(ncn2C)n(C)c1=O` [caffeine], for which the “increase in resting metabolic rate” value is listed as 3-4% in test [1], 150 kcal/day in test [1] (lean adults) and 80 kcal/day in test [1] (post-obese adults). In test [2] (4 weeks, i.p. twice a day, p=0.006), the fat accretion entry is “reduced fat accretion”. The “increased energy expenditure (the delta)” value with healthy adults (100 mg caffeine alone, oral) was determined as 37 kcal. Besides, the “energy expenditure over the baseline metabolic rate” value in the test on healthy adults (all dosages, single oral dose, p<0.02 to p<0.001, n=8) is given as “significant increases”. In addition, the “increase in lipolysis over buffer-treated cells” value in test [3] (caffeine 10 μg/mL, p=0.83) was “exception”.

Take `CC(C)NCC(O)c1ccc(O)c(O)c1` (stereo not shown) [isoproterenol, Isoproterenol]: the increase in lipolysis in test [3] (Isoproterenol 1 μM positive control, p<0.001) is listed as around 90%.

In the case of `CCCCCCCCCCC[C@@H](C[C@@H]1OC(=O)[C@H]1CCCCCC)OC(=O)[C@H](CC(C)C)NC=O` [Orlistat], in the test with adults, the weight loss result was “about 2.8%”, the “weight loss attributable to fat loss” value is 2.1% and the “weight loss attributable to reduction in lean tissue” value is reported as 0.7%.

As for `CC(C)(C)NCC(O)c1ccc(O)c(CO)c1` (stereo not shown) [albuterol, albuterol (salbutamol)], the “fat mass gained, week 8” value in test [4] (p=0.004, n=30) is on record as 20.1 g. Also, the “lean mass gained by week 8” value in test [4] (p=0.03, n=30) stood at 60.3 g. For the same molecule, the “additional lean mass gained compared to the saline control group” value in test [2] (4 weeks, i.p. twice a day, albuterol 0.125 mg/kg, caffeine 3.12 mg/kg, p<0.001) was determined as 16.6 g. The “weight gain compared to the saline control group” value in test [2] (4 weeks, i.p. twice a day, albuterol 0.125 mg/kg, caffeine 3.12 mg/kg, p=0.04) is on record as “gained significantly more weight”. Moreover, the “energy expenditure during the dark phase” value in test [2] (albuterol 0.125 mg/kg i.p. twice a day, p=0.07) is on record as “trend towards increased energy expenditure”.
